Source: ChEMBL document CHEMBL3045563, “Synthesis and in vitro antibacterial activity of schiff bases of N-substituted isatins as effective scaffolds” (2013)
In brackets after ≈: the same amount, converted by molar mass.

How the values were obtained:
Assay type in all cases: functional
[1] = system: Staphylococcus epidermidis; test: Antibacterial activity against Staphylococcus epidermidis NCIM 2493 assessed as diameter of growth zone inhibition after 24 hr by disk diffusion method; further: test concentration or dose not given here
Proteus vulgaris [2] = test: Antibacterial activity against Proteus vulgaris NCIM 2027 assessed as diameter of growth zone inhibition after 24 hr by disk diffusion method; further: test concentration or dose not given here
Escherichia coli [3] = test: Antibacterial activity against Escherichia coli NCIM 2065 assessed as growth inhibition after 48 hr by NCCLS broth dilution method; details: NCIM 2065, 48 h
Staphylococcus aureus [4] = test: Antibacterial activity against Staphylococcus aureus NCIM 2079 assessed as diameter of growth zone inhibition after 24 hr by disk diffusion method; further: test concentration or dose not given here
Proteus vulgaris [5] = test: Antibacterial activity against Proteus vulgaris NCIM 2027 assessed as growth inhibition after 48 hr by NCCLS broth dilution method; details: NCIM 2027, 48 h
Pseudomonas aeruginosa [6] = test: Antibacterial activity against Pseudomonas aeruginosa NCIM 2036 assessed as diameter of growth zone inhibition after 24 hr by disk diffusion method; further: test concentration or dose not given here
[7] = system: Staphylococcus epidermidis; test: Antibacterial activity against Staphylococcus epidermidis NCIM 2493 assessed as growth inhibition after 48 hr by NCCLS broth dilution method; details: NCIM 2493, 48 h
Staphylococcus aureus [8] = test: Antibacterial activity against Staphylococcus aureus NCIM 2079 assessed as growth inhibition after 48 hr by NCCLS broth dilution method; details: NCIM 2079, 48 h
Escherichia coli [9] = test: Antibacterial activity against Escherichia coli NCIM 2065 assessed as diameter of growth zone inhibition after 24 hr by disk diffusion method; further: test concentration or dose not given here
Pseudomonas aeruginosa [10] = test: Antibacterial activity against Pseudomonas aeruginosa NCIM 2036 assessed as growth inhibition after 48 hr by NCCLS broth dilution method; details: NCIM 2036, 48 h
Bacillus subtilis [11] = test: Antibacterial activity against Bacillus subtilis NCIM 2156 assessed as growth inhibition after 48 hr by NCCLS broth dilution method; details: NCIM 2156, 48 h
Bacillus subtilis [12] = test: Antibacterial activity against Bacillus subtilis NCIM 2156 assessed as diameter of growth zone inhibition after 24 hr by disk diffusion method; further: test concentration or dose not given here

| SMILES | diameter of the inhibition zone (DIZ) [1] | diameter of the inhibition zone (DIZ) (Proteus vulgaris [2]) | MIC (Escherichia coli [3]) | diameter of the inhibition zone (DIZ) (Staphylococcus aureus [4]) | MIC (Proteus vulgaris [5]) | diameter of the inhibition zone (DIZ) (Pseudomonas aeruginosa [6]) | MIC [7] | MIC (Staphylococcus aureus [8]) | diameter of the inhibition zone (DIZ) (Escherichia coli [9]) | MIC (Pseudomonas aeruginosa [10]) | MIC (Bacillus subtilis [11]) | diameter of the inhibition zone (DIZ) (Bacillus subtilis [12]) |
| --- | --- | --- | --- | --- | --- | --- | --- | --- | --- | --- | --- | --- |
| CCCN1C(=O)/C(=N\c2ccc(N3C(=O)c4ccc(Cl)cc4C3=O)c(C)c2)c2cc([N+](=O)[O-])ccc21 | 12 mm | 12 mm | 20 µg/mL (≈ 39.8 µM) | 10 mm | 20 µg/mL (≈ 39.8 µM) | 10 mm | 15 µg/mL (≈ 29.8 µM) | 30 µg/mL (≈ 59.7 µM) | 12 mm | 20 µg/mL (≈ 39.8 µM) | 30 µg/mL (≈ 59.7 µM) | 10 mm |
| C#CCN1C(=O)/C(=N\c2ccc(N3C(=O)c4ccc(Cl)cc4C3=O)c(C)c2)c2cc([N+](=O)[O-])ccc21 | 8 mm | 10 mm | 15 µg/mL (≈ 30.1 µM) | 13 mm | 20 µg/mL (≈ 40.1 µM) | 14 mm | 20 µg/mL (≈ 40.1 µM) | 25 µg/mL (≈ 50.1 µM) | 18 mm | 15 µg/mL (≈ 30.1 µM) | 30 µg/mL (≈ 60.1 µM) | 8 mm |
| Cc1cc(/N=C2\C(=O)N(S(=O)(=O)c3ccc([N+](=O)[O-])cc3)c3ccc(OC(F)(F)F)cc32)ccc1N1C(=O)c2ccc(Cl)cc2C1=O | 18 mm | 22 mm | 10 µg/mL (≈ 14.6 µM) | 20 mm | 10 µg/mL (≈ 14.6 µM) | 18 mm | 10 µg/mL (≈ 14.6 µM) | 10 µg/mL (≈ 14.6 µM) | 20 mm | 10 µg/mL (≈ 14.6 µM) | 15 µg/mL (≈ 21.9 µM) | 14 mm |
| O=C(O)c1cn(C2CC2)c2cc(N3CCNCC3)c(F)cc2c1=O [CIPROFLOXACIN] | 28 mm | 28 mm |  | 26 mm | 10 µg/mL (≈ 30.2 µM) | 24 mm | 10 µg/mL (≈ 30.2 µM) | 10 µg/mL (≈ 30.2 µM) | 30 mm | 10 µg/mL (≈ 30.2 µM) | 10 µg/mL (≈ 30.2 µM) | 22 mm |
| Cc1cc(/N=C2\C(=O)N(S(=O)(=O)C(F)(F)F)c3ccc(OC(F)(F)F)cc32)ccc1N1C(=O)c2ccc(Cl)cc2C1=O | 10 mm | 20 mm | 10 µg/mL (≈ 15.8 µM) | 18 mm | 10 µg/mL (≈ 15.8 µM) | 12 mm | 15 µg/mL (≈ 23.7 µM) | 15 µg/mL (≈ 23.7 µM) | 23 mm | 15 µg/mL (≈ 23.7 µM) | 10 µg/mL (≈ 15.8 µM) | 20 mm |
| C#CCN1C(=O)/C(=N\c2ccc(N3C(=O)c4ccc(Cl)cc4C3=O)c(C)c2)c2cc(OC(F)(F)F)ccc21 | 10 mm | 14 mm | 20 µg/mL (≈ 37.2 µM) | 10 mm | 15 µg/mL (≈ 27.9 µM) | 12 mm | 15 µg/mL (≈ 27.9 µM) | 30 µg/mL (≈ 55.8 µM) | 10 mm | 15 µg/mL (≈ 27.9 µM) | 25 µg/mL (≈ 46.5 µM) | 11 mm |
| Cc1cc(/N=C2\C(=O)N(Cc3ccccc3)c3ccc([N+](=O)[O-])cc32)ccc1N1C(=O)c2ccc(Cl)cc2C1=O | 10 mm | 14 mm | 15 µg/mL (≈ 27.2 µM) | 12 mm | 15 µg/mL (≈ 27.2 µM) | 14 mm | 15 µg/mL (≈ 27.2 µM) | 30 µg/mL (≈ 54.5 µM) | 16 mm | 15 µg/mL (≈ 27.2 µM) | 25 µg/mL (≈ 45.4 µM) | 10 mm |
| Cc1cc(/N=C2\C(=O)Nc3ccc(OC(F)(F)F)cc32)ccc1N1C(=O)c2ccc(Cl)cc2C1=O | 18 mm | 14 mm | 10 µg/mL (≈ 20 µM) | 18 mm | 15 µg/mL (≈ 30 µM) | 20 mm | 10 µg/mL (≈ 20 µM) | 10 µg/mL (≈ 20 µM) | 24 mm | 10 µg/mL (≈ 20 µM) | 15 µg/mL (≈ 30 µM) | 16 mm |
| Cc1ccc2c(c1)/C(=N/c1ccc(N3C(=O)c4ccc(Cl)cc4C3=O)c(C)c1)C(=O)N2 | 10 mm | 10 mm | 20 µg/mL (≈ 46.5 µM) | 20 mm | 20 µg/mL (≈ 46.5 µM) | 16 mm | 15 µg/mL (≈ 34.9 µM) | 10 µg/mL (≈ 23.3 µM) | 12 mm | 15 µg/mL (≈ 34.9 µM) | 25 µg/mL (≈ 58.2 µM) | 12 mm |
| Cc1cc(/N=C2\C(=O)N(S(=O)(=O)c3ccc([N+](=O)[O-])cc3)c3ccc([N+](=O)[O-])cc32)ccc1N1C(=O)c2ccc(Cl)cc2C1=O | 20 mm | 14 mm | 10 µg/mL (≈ 15.5 µM) | 18 mm | 15 µg/mL (≈ 23.2 µM) | 18 mm | 10 µg/mL (≈ 15.5 µM) | 10 µg/mL (≈ 15.5 µM) | 22 mm | 10 µg/mL (≈ 15.5 µM) | 15 µg/mL (≈ 23.2 µM) | 16 mm |
| Cc1cc(/N=C2\C(=O)N(S(C)(=O)=O)c3ccc(OC(F)(F)F)cc32)ccc1N1C(=O)c2ccc(Cl)cc2C1=O | 18 mm | 16 mm | 10 µg/mL (≈ 17.3 µM) | 16 mm | 15 µg/mL (≈ 26 µM) | 14 mm | 10 µg/mL (≈ 17.3 µM) | 15 µg/mL (≈ 26 µM) | 22 mm | 15 µg/mL (≈ 26 µM) | 15 µg/mL (≈ 26 µM) | 18 mm |
| Cc1cc(/N=C2\C(=O)Nc3ccc([N+](=O)[O-])cc32)ccc1N1C(=O)c2ccc(Cl)cc2C1=O | 20 mm | 11 mm | 10 µg/mL (≈ 21.7 µM) | 20 mm | 15 µg/mL (≈ 32.5 µM) | 18 mm | 10 µg/mL (≈ 21.7 µM) | 10 µg/mL (≈ 21.7 µM) | 22 mm | 10 µg/mL (≈ 21.7 µM) | 15 µg/mL (≈ 32.5 µM) | 16 mm |
| Cc1cc(/N=C2\C(=O)N(S(C)(=O)=O)c3ccc([N+](=O)[O-])cc32)ccc1N1C(=O)c2ccc(Cl)cc2C1=O | 18 mm | 14 mm | 10 µg/mL (≈ 18.6 µM) | 16 mm | 15 µg/mL (≈ 27.8 µM) | 18 mm | 10 µg/mL (≈ 18.6 µM) | 15 µg/mL (≈ 27.8 µM) | 24 mm | 10 µg/mL (≈ 18.6 µM) | 15 µg/mL (≈ 27.8 µM) | 16 mm |
